Test results from patent US8039639B2, “Kinase inhibitors and methods of use thereof” (Array BioPharma Inc., priority 2006, dated 2011).
Residues, ends and D or L forms follow the SMILES beside them. *: point of attachment. Cbz = O=C(OCc1ccccc1)*

What was measured:
RPMI 8226 = RPMI 8226 cell viability (CellTiter Blue); assay type: cell-based; conditions: Homo sapiens; RPMI 8226, 72 hours; read-out: Proliferation IC50
Experimental: Cell viability was then measured using CellTiter Blue (Promega) to determine IC50 values for each compound (Table 8). […] MG-132 produced an IC50 that was within historical ranges of in-house testing (Table 8).

Solubility determination = assay type: physicochemical
p38α = p38α (Homo sapiens, UniProt Q16539); test: in-house p38α radioactive kinase assay using ATF-2 as a substrate; assay type: biochemical; conditions: ATF-2 substrate
Chain of p38α (Q16539 whole entry, the tested form may be a part): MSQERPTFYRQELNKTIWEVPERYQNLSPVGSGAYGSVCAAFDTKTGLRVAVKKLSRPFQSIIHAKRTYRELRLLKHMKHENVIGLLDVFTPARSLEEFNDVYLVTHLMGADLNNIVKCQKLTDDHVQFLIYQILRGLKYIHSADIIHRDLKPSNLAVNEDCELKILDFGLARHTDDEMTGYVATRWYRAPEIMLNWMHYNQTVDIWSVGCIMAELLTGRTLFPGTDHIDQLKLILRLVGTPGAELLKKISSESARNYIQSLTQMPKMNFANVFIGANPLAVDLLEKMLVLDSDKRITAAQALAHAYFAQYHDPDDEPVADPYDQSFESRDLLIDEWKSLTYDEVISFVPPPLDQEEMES
Experimental: p38 activity was assayed at room temperature in a 100 μL reaction containing 5 nM activated p38α enzyme and 1 μM ATF-2 (Activating Transcription Factor 2 fusion protein) as the substrate in 25 mM HEPES (pH 7.4), 100 μM Vanadate, 1 mM DTT, 10 mM MgCl2 and 10 μM [γ-^33P]-ATP (˜0.1 μCi P^33/reaction). The reaction was terminated after 30-40 minutes by adding 25% TCA, allowed to stand for 5 minutes, and then transferred directly to a GF-B membrane filter plate. The filter was washed twice for 30 seconds with 0.5% phosphoric acid using a Tomtec Mach III Automated Harvestor. After washing, the vacuum was continued for 30 seconds to dry the filter. Approximately 30 μL of scintillant was added per well to the filter plate and then read in a Liquid Scintillation Counter (Packard TopCount HTS).

Tie2 = Tie2 (Homo sapiens, UniProt Q02763); test: protein kinase IC50 determination (ATP at Km); assay type: biochemical; conditions: ATP concentration at Km
Chain of Tie2 (Q02763 23-1124, species assumed): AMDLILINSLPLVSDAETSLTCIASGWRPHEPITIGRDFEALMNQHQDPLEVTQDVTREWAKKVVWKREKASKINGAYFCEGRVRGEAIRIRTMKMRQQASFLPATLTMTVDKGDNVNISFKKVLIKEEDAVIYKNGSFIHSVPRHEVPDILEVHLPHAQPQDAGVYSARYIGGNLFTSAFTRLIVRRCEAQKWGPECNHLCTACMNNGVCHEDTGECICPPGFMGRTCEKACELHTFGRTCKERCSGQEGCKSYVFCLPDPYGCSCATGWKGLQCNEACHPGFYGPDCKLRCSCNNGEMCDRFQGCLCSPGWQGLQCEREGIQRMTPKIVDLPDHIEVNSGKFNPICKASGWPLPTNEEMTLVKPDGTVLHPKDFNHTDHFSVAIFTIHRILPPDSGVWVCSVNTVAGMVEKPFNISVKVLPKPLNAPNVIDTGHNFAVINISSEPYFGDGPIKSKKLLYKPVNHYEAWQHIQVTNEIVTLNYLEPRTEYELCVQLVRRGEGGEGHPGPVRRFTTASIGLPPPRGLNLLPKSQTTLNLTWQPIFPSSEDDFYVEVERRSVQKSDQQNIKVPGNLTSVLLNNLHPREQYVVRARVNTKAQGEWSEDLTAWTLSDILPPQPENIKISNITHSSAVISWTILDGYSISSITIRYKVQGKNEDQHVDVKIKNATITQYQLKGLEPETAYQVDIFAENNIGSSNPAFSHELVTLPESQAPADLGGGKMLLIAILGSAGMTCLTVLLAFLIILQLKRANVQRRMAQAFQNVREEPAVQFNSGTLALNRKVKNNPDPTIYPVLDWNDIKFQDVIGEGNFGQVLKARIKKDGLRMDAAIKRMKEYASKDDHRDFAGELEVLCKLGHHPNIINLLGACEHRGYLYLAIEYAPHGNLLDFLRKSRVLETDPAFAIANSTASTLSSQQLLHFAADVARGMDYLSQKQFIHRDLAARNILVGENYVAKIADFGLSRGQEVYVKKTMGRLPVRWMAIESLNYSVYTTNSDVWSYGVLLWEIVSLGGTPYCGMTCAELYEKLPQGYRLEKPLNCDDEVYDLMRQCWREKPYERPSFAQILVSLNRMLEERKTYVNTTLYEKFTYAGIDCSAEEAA

Abl = Abl (Homo sapiens, UniProt P00519); test: protein kinase IC50 determination (ATP at Km); assay type: biochemical; conditions: ATP concentration at Km
Chain of Abl (P00519 whole entry, species assumed): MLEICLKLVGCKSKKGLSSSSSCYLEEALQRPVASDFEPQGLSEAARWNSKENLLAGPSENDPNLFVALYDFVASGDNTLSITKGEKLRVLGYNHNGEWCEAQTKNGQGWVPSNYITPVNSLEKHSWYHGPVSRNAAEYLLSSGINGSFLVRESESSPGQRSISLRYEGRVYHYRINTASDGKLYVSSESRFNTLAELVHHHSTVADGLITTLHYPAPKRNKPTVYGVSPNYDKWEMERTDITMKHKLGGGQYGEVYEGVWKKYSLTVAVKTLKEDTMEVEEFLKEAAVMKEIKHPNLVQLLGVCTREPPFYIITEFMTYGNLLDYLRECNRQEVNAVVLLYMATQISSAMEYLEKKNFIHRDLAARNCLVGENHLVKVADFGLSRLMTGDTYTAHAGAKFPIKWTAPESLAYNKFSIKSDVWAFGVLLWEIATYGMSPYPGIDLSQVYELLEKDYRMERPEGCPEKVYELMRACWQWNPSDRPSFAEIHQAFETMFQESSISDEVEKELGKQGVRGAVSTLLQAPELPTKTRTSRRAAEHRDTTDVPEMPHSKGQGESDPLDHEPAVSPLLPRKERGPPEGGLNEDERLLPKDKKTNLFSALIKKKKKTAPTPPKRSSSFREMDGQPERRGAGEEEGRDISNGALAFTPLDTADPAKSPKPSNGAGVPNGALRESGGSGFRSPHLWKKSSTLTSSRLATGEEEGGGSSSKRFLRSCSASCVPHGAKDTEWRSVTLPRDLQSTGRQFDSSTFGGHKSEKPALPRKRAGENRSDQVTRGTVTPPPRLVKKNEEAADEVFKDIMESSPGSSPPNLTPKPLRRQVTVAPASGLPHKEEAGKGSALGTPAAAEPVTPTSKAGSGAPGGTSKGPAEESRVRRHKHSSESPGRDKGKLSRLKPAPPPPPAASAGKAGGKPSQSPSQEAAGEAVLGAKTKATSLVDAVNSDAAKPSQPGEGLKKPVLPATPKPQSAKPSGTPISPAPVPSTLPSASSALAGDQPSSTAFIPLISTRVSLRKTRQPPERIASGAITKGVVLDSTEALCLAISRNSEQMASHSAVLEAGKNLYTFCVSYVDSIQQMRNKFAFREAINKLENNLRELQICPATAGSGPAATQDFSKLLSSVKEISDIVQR

K562 cells = test: K562 subcutaneous tumor model (BCR-Abl-driven tumors); assay type: in vivo, Female Scid-beige mice; conditions: K562 tumors, PO ×7, dosed as Compound 74
Experimental: Test compounds were administered by oral gavage at the indicated doses and schedules when tumors reached 200±50 mm^3 in size. […] Tumor size and body weight were monitored throughout the study.

Row | solubility (Solubility determination; pH 6.5, aqueous buffer) [µg/mL] | solubility (Solubility determination; pH 7.4, aqueous buffer) [µg/mL] | IC50 (p38α) [µM] | IC50 (Tie2) [µM] | IC50 (Abl) [µM] | solubility (Solubility determination; pH 1.2, simulated gastric fluid) [µg/mL] | SMILES | IC50 (RPMI 8226) [µM] | % Regression (K562 cells; 30 mg/kg BID) | % Regression (K562 cells; 100 mg/kg BID) [%] | % Regression (K562 cells; 100 mg/kg QD)
1 |  |  |  |  |  |  | CC(C)C[C@@H](C=O)NC(=O)[C@H](CC(C)C)NC(=O)[C@H](CC(C)C)NC(=O)OCc1ccccc1 [MG-132, reference compound] (Cbz-Leu-Leu-Leu-aldehyde) | 0.114 |  |  | 
2 | < 1 | < 1 | < 0.002 | > 0.5 | > 0.5 |  | Cn1nc(C(C)(C)C)cc1NC(=O)NCc1cc(F)ccc1Oc1ccc2c(cnn2CC(C)(C)O)c1 [Example 138] |  |  |  | 
3 |  |  |  |  |  | < 1000 | Cc1ccc(-n2nc(C(C)(C)C)cc2NC(=O)NCc2cc(F)ccc2Oc2ccc3c(cnn3CCOP(=O)(O)O)c2)cc1 [Compound 74, 2-(5-(2-(3-(3-tert-butyl-1-p-tolyl-1H-pyrazol-5-yl)ureido)methyl)-4-fluorophenoxy)-1H-indazol-1-yl)ethyl dihydrogenphosphate] |  | tumor stasis | 94 | tumor stasis
4 | < 1 | < 1 | < 0.002 | 0.004 | 0.01 |  | Cc1ccc(-n2nc(C(C)(C)C)cc2NC(=O)NCc2cc(F)ccc2Oc2ccc3c(cnn3C)c2)cc1 [Example 94] |  |  |  | 
